The text below walks through data of article PMC3967766 (Journal of medicinal chemistry, 2013).

Data set [1] addresses T1, CB2 receptor (Homo sapiens, UniProt P34972). The experiment in a line: cell-based LANCE cAMP assay in CHO cells stably expressing CB2. A general note: In TR-FRET formats the signal depends on donor and acceptor labels being close together.
Data set [2] deals with T1, CB2 receptor. The experiment in a line: [3H]CP-55,940 radioligand competition binding assay, CB2.
The subject of data set [3] is RAW 264.7 cells. Put plainly: RANKL-induced osteoclast formation assay. Particulars: 5 days; for inhibitory activity on RANKL-induced osteoclast formation: RAW 264.7, RANKL 15 ng/mL; for inhibition rate of osteoclast formation: RANKL 15 ng/mL.
Data set [4] has as its system RAW 264.7 cells. Put plainly: MTT cytotoxicity assay on osteoclast precursors. Format: cell-based, mouse. Particulars: for cell viability versus vehicle control: 1.25 and 2.5 µM; for cell viability: 5 and 10 µM. (In general: Formazan colour is commonly taken as a measure of viable cells.)
In a further data set the target is CB1 receptor (Homo sapiens, UniProt P21554). The experiment in a line: [3H]CP-55,940 radioligand competition binding assay, CB1. Particulars: read-out: Ki (CB1); [3H]CP-55,940 competition, CB1 membrane protein. A general note: In a radioligand displacement assay an active substance lowers the binding of a labelled ligand.

Entries after “also recorded” stand apart in the source; their conditions may differ. Read-outs that look alike come from different tables or passages of the source.

T1 sequence (P34972 whole entry): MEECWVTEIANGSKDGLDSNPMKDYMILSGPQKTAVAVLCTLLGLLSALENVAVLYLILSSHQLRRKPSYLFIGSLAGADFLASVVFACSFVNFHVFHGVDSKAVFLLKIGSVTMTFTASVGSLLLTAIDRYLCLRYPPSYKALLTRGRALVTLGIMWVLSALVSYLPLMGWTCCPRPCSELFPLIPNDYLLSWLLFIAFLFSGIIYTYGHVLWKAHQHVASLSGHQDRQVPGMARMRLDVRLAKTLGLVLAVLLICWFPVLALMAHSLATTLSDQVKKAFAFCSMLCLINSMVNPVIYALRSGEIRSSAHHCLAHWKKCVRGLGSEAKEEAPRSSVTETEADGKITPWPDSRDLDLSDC
Chain of CB1 receptor (P21554 whole entry): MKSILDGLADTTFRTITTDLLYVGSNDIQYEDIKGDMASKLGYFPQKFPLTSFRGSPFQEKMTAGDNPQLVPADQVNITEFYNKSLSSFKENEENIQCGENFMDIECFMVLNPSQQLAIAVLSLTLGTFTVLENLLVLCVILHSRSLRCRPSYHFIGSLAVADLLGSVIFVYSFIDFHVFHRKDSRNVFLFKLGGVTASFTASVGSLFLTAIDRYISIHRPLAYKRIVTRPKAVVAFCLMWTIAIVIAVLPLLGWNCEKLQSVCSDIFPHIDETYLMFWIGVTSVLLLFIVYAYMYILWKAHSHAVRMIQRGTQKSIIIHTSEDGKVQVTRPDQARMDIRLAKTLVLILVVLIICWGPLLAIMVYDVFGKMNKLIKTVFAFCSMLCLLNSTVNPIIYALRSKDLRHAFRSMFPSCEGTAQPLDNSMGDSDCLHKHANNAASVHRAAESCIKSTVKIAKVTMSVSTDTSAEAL

For `Cc1ccc(Cn2nc(C(=O)NC3C4(C)CCC(C4)C3(C)C)cc2-c2ccc(Cl)c(C)c2)cc1` (stereo not drawn) [Compound 5, SR144528, reference compound], the CB2 functional activity entry at CB2 receptor [1] is given as “inverse agonists”.
As for `CCCCCCC(C)(C)c1ccc([C@@H]2C[C@H](O)CC[C@H]2CCCO)c(O)c1` [CP55940, reference compound], the CB2 functional activity entry on CB2 receptor [1] is “agonists”.
As to `CCN(CC)c1ccc(CN(c2ccc(C)cc2)S(=O)(=O)c2ccccc2)cc1` [Compound 54, N-(4-(Diethylamino)benzyl)-N-(p-tolyl)benzenesulfonamide], the CB2 functional activity entry on CB2 receptor [1] (LANCE cAMP assay) is “inverse agonists”.
Regarding `CCN(CC)c1ccc(CN([C@]23C[C@H]4C[C@H](C[C@H](C4)C2)C3)S(=O)(=O)c2cccc(C)c2)cc1` [Compound 25, N-((3s,5s,7s)-Adamantan-1-yl)-N-(4-(diethylamino)benzyl)-3-methylbenzenesulfonamide], the affinity at CB2 receptor [2] corresponds to a Ki of 25 nM. In addition, the “inhibitory activity on RANKL-induced osteoclast formation” value (“inhibitory activity” for short) in the data set on RAW 264.7 cells [3] is “inhibit RANKL-induced osteoclastogenesis in a dose-dependent manner; also recorded: potent inhibitory activity”.
Take `CCN(CC)c1ccc(CN([C@]23C[C@H]4C[C@H](C[C@H](C4)C2)C3)S(=O)(=O)c2ccc(F)cc2)cc1` [Compound 21, N-((3s,5s,7s)-Adamantan-1-yl)-N-(4-(diethylamino)benzyl)-4-fluorobenzenesulfonamide]: on CB2 receptor [1] (LANCE cAMP assay), the CB2 functional activity entry is given as “inverse agonists”.
Consider `CCN(CC)c1ccc(CN(c2ccc(Cl)cc2)S(=O)(=O)c2ccc(OC)cc2)cc1` [Compound 48, N-(4-Chlorophenyl)-N-(4-(diethylamino)benzyl)-4-methoxybenzenesulfonamide], for which the CB2 functional activity entry on CB2 receptor [1] (LANCE cAMP assay) is “inverse agonists”. Moreover, in the data set with RAW 264.7 cells [4] (3 days, MTT), the “cell viability versus vehicle control” value is recorded as “not significantly affected” and the cell viability result was “only some effects on cell viability”. For the same molecule, the “inhibition rate of osteoclast formation” value in the data set on RAW 264.7 cells [3] (1 µM) is “good inhibition activity”. The “inhibitory activity” value in the data set with RAW 264.7 cells [3] is on record as “inhibit RANKL-induced osteoclastogenesis in a dose-dependent manner; also recorded: potent inhibitory activity”.
In the case of `CCN(CC)c1ccc(CN(C(=O)Cc2ccc(Cl)cc2)c2ccc(Cl)cc2)cc1` [Compound 52, N,2-bis(4-Chlorophenyl)-N-(4-(diethylamino)benzyl)acetamide], the inhibition constant Ki (in general, a dissociation constant, usually derived from enzyme kinetics or from competition with a known ligand) at CB1 receptor was > 20000 nM.
Regarding `CCN(CC)c1ccc(CN(c2ccc(C)cc2)S(=O)(=O)c2ccc(OC)cc2)cc1` [Compound 57, N-(4-(Diethylamino)benzyl)-4-methoxy-N-(p-tolyl)benzenesulfonamide], the CB2 functional activity result at CB2 receptor [1] (LANCE cAMP assay) is given as “inverse agonists”. In the data set on RAW 264.7 cells [4] (5 µM, 3 days, MTT), the “effect on cell viability” value is “only slight effect on cell viability”. In the data set with RAW 264.7 cells [4] (3 days, MTT), the “cell viability versus vehicle control” value is “not significantly affected” and the cell viability result is reported as “only some effects on cell viability”. The “cytotoxic effects on RAW 264.7” value in the data set with RAW 264.7 cells [4] (cell viability test, overall) was “very low cytotoxic effects”. Besides, in the data set with RAW 264.7 cells [3] (0.1 µM), the “inhibition rate of osteoclast formation” value is “strongest inhibition activity”. The “inhibition rate of osteoclast formation” value with RAW 264.7 cells [3] (1 µM) is “good inhibition activity”. For the same molecule, in the data set on RAW 264.7 cells [3], the “inhibitory activity” value is “potent inhibitory activity; also recorded: inhibit RANKL-induced osteoclastogenesis in a dose-dependent manner”.
In the case of `CCCCCCC(C)(C)c1cc(OC)c([C@H]2C=C(CO)[C@H]3C[C@@H]2C3(C)C)c(OC)c1` (stereo in doubt) [HU308, reference compound], the CB2 functional activity entry on CB2 receptor [1] (LANCE cAMP assay) was “agonists”.
